# In patent publication US20260234173A1, “STRUCTURED MOLECULAR VECTORS FOR ANTI-INFLAMMATORY COMPOUNDS AND USES THEREOF” (Universite Claude Bernard Lyon 1, priority 2019, published 2026):
# Assays:
# [1] = test system: hippocampal LTP in healthy rats; experiment: Hippocampal LTP in slices from healthy rats treated in vivo; design: species or system rat; conditions: 2 mg/kg i.p. each day during 7 days (P21-P27)
# Protocol: At P28-38, Sprague-Dawley rats were anesthetized with isoflurane, the forebrain was removed and placed in ice cold standard artificial cerebrospinal fluid (ACSF), consisting of (in mM): 124 NaCl, 5 KCl, 1.25 Na2HPO4, 2 MgSO4, 2 CaCl2), 26 NaHCO3, supplemented with 10 D-glucose, and bubbled with 95% O2 and 5% CO2. Hippocampal transverse slices were cut into 350 μm thick sections, using a vibratome (Leica VT1000S), and incubated in ACSF at room temperature for at least 1 h, before the transfer to the recording chamber. The ACSF used for perfusion was supplemented with picrotoxin (100 μM; Sigma-Aldrich), to block GABA-A receptors and therefore to facilitate the induction of NMDA receptors-dependent Long-Term Potentiation (LTP). […] Series resistance was continually monitored, and experiments were discarded if it changed by >20%.
# Capillary glass pipettes filled with ACSF and connected to an Iso-Flex stimulus isolation unit (A.M.P.I.) were placed in stratum radiatum, to evoke excitatory postsynaptic potentials (EPSPs) in CA1 pyramidal neurons. […] LTP was induced by the theta burst pairing (TBP) protocol, which consisted of EPSPs paired with single back-propagating action potentials (b-APs), timed so that the b-AP (~15 ms delay) occurred at the peak of the EPSPs, as measured in the soma. […]
# [2] = test system: immortalized human microglia (IHM); experiment: Expression of inflammation markers in immortalized human microglia activated by IL-1β (RT-qPCR); type: cell-based; conditions: pre-treated with 150 nM and 300 nM 3 hours before IL-1β (3 ng/mL); RNA after 5 hours
# Protocol: Immortalized human microglia (IHM; Innoprot, Derio, Spain) were seeded at 13,000 cells/cm^2 in T75 flasks coated with type I human collagen (10 μL/mL, Coating Matrix Kit, Innoprot). The medium was formulated for optimal growth of human brain-derived microglia in vitro, and contained 1% pen/strep, 1% of microglia growth supplement and 5% fetal bovine serum (Microglial Cell Medium Kit, Innoprot).
# IHM were seeded (10,000 cells/cm^2) in type 1 collagen-coated 6-well plates. When cell culture was about 80% confluent, IL-1β (R&D Systems) was added to the culture medium at 0.5 ng/mL, 1.5 ng/mL or 3.0 ng/mL. At t=0, each well received 1 mL of medium only (controls) or 1 mL of medium containing the desired concentration of IL-1β. Cells were harvested at t=0 h, t=3 h, t=8 h and t=24 h. Each tested condition was repeated as triplicates.
# The effect of synaptamide phosphonate has been tested as illustrated in FIG. 5. […]
# PCR amplification of targeted cDNAs was performed using the Rotor-Gene Q system (Qiagen) and the QuantiTect SYBR Green PCR Kit (Qiagen).
# The ScDNA copy number measured after qPCR was used to estimate the RT step yield for each sample, taking into account that the same number of SmRNA copies was initially present in all samples before RT step. This yield made it possible to standardize the values obtained for all the genes of interest measured from the same sample. […]
# [3] = test system: hippocampal LTP in rats subjected to Pilo-SE; experiment: Hippocampal LTP in slices from Pilo-SE rats treated in vivo (i.p. or per os); design: species or system rat; conditions: 1 h after cessation of SE then daily
# Protocol: In this experiment we used male Sprague-Dawley rats (ENVIGO, Netherlands). Pups were received at 14 day-old (postnatal day 14 (P14)) with their foster mother, and were maintained in groups of 10 in plastic cages (405 mm×255 mm×197 mm) with free access to food and water. All animal procedures are in accordance with the guidelines of the Animal Care and Use Committee of the University Claude Bernard Lyon 1.
# All injected solutions were prepared in sterile saline (0.9% w/v). At weaning (postnatal day 20 (P20)), Sprague-Dawley male rat pups were first injected i.p. with lithium chloride (127 mg/Kg; Sigma-Aldrich), to decrease the dose of pilocarpine needed to trigger Status Epilepticus (SE). Scopolamine methylnitrate (1 mg/Kg; Sigma-Aldrich) was injected s.c. 18 h later, to alleviate peripheral cholinergic adverse side effects. Pilocarpine hydrochloride (25 mg/Kg; Sigma-Aldrich) was injected i.p. 30 min later, to induce SE. […] The rats were placed on a heated pad, under continuous observation, until they recovered from sedation. Following recovery, the rats were returned to the nursing mother until P23. Control rats only received saline injections. All rats were then housed in groups of 10 and weighed daily, during the 5 following days, to control for food intake, and then twice weekly until the end of experiment (three weeks post SE).
# At P28-38, Sprague-Dawley rats were anesthetized with isoflurane, the forebrain was removed and placed in ice cold standard artificial cerebrospinal fluid (ACSF), consisting of (in mM): 124 NaCl, 5 KCl, 1.25 Na2HPO4, 2 MgSO4, 2 CaCl2), 26 NaHCO3, supplemented with 10 D-glucose, and bubbled with 95% O2 and 5% CO2. Hippocampal transverse slices were cut into 350 μm thick sections, using a vibratome (Leica VT1000S), and incubated in ACSF at room temperature for at least 1 h, before the transfer to the recording chamber. The ACSF used for perfusion was supplemented with picrotoxin (100 μM; Sigma-Aldrich), to block GABA-A receptors and therefore to facilitate the induction of NMDA receptors-dependent Long-Term Potentiation (LTP). CA1 pyramidal cells were visualized with a Zeiss Axioskop 2, equipped with a X40 objective, using infrared video microscopy and differential interference contrast optics. Whole-cell recordings from pyramidal neurons in the CA1 layer were obtained with patch electrodes, which were filled with a solution containing (in mM): 120 potassium gluconate, 20 KCl, 0.2 EGTA, 2 MgCl2, 10 HEPES, 4 Na2ATP, 0.3 Tris-GTP and 14 mM phosphocreatine (pH 7.3, adjusted with KOH). Drugs were applied in the bath of the hippocampal slices. Electrode resistances ranged from 3-5 MΩ. Series resistance was continually monitored, and experiments were discarded if it changed by >20%.
# Capillary glass pipettes filled with ACSF and connected to an Iso-Flex stimulus isolation unit (A.M.P.I.) were placed in stratum radiatum, to evoke excitatory postsynaptic potentials (EPSPs) in CA1 pyramidal neurons. Cells were held at −70 mV to record EPSPs, and the stimulation strength was set to evoke EPSPs between 5-8 mV. LTP was induced by the theta burst pairing (TBP) protocol, which consisted of EPSPs paired with single back-propagating action potentials (b-APs), timed so that the b-AP (~15 ms delay) occurred at the peak of the EPSPs, as measured in the soma. A single burst contained five pairs delivered at 100 Hz and ten bursts were delivered at 5 Hz per sweep. Three sweeps were delivered at 10 s intervals for a total of 30 bursts (150 b-AP-EPSP pairs). The b-APs were elicited by direct somatic current injection (1 ms, 1-2 nA). This induction protocol was always applied within 20 min of achieving whole-cell configuration, to avoid “wash-out” of LTP.
smiles,measurement,setting,value
CCC=CCC=CCC=CCC=CCC=CCC=CCCC(=O)NCCP(=O)(O)O [synaptamide phosphonate],"LTP magnitude (EPSP amplitude, % of baseline)",[1],212.11±12.9%
same,IL-1β-mediated cytokine and chemokine gene induction,[2],dramatic reduction
same,"LTP magnitude (EPSP amplitude, % of baseline)",[3]; 2 mg/kg i.p.,183.07±9.02%
same,"LTP magnitude (EPSP amplitude, % of baseline)",[3]; 5 mg/kg i.p.,162.4±11.9%
same,"LTP magnitude (EPSP amplitude, % of baseline)",[3]; 10 mg/kg i.p.,162.78±12.23%
same,"LTP magnitude (EPSP amplitude, % of baseline)",[3]; 10 mg/kg per os,110.7±4.7%
same,"LTP magnitude (EPSP amplitude, % of baseline)",[3]; 30 mg/kg per os,146.16±10%
same,"LTP magnitude (EPSP amplitude, % of baseline)",[3]; 100 mg/kg per os,162.6±9.2%
